Values after ≈ are worked out from the molar mass of the structure shown. Like-named read-outs stand apart in the source and are kept apart here.
Assays:
[1] = target: cytochrome P450 2C8-isoenzyme (Homo sapiens (Human), UniProt P10632); test: Inhibition of CYP-2C8 (amodiaquine deethylation, human liver microsomes); assay type: in vitro ADME; details: amodiaquine 1 μM, 37° C.
Method: (§1) All assays are carried out on a robotic system in 96 well plates. The final incubation volume contains TRIS buffer (0.1 M), MgCl2 (5 mM), human liver microsomes (0.05 mg/mL), amodiaquine (1 μM) and the test compound at five different concentrations or no compound (high control) in duplicate (e.g. highest concentration 10-50 μM with subsequent serial 1:4 dilutions). Following a short preincubation period, reactions are started with the cofactor (NADPH, 1 mM) and stopped by cooling the incubation down to 8° C. and subsequently by addition of one volume of acetonitrile. An internal standard solution—the stable isotope d5-desethylamodiaquine—is added after quenching of incubations. Peak area analyte (=metabolite formed) and internal standard is determined by LC-MS/MS. The resulting peak area ratio analyte to internal standard in these incubations is compared to a control activity containing no test compound. Within each of the assay runs, the IC50 of a positive control inhibitor (Montelukast) is determined.

human GPR40 receptor = human GPR40 receptor (Homo sapiens (Human), UniProt O14842); test: IP1 accumulation measurements using the IPOne assay system; assay type: cell-based
human GPR40 receptor, sequence (O14842 whole entry): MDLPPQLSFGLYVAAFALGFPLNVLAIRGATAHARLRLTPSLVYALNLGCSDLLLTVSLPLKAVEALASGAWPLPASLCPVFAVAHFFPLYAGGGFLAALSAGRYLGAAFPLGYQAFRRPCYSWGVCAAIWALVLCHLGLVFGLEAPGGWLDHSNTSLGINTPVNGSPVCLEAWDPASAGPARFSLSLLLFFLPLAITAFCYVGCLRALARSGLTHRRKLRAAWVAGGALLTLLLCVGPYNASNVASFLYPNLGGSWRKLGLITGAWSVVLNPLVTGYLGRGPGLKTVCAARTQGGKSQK
Method: IP1 accumulation measurements using the IPOne assay system—1321N1 cells stably expressing human GPR40 receptor (Euroscreen, Belgium) are seeded 24 h before the assay in white 384-well plates in culture medium containing 10% FCS, 1% Na-Pyruvate and 400 μg/mL G418. IP1 is assayed according to the manufacturer's description (Cisbio Bioassays, France). In brief, the assay is started by substitution of the culture medium by stimulation buffer (Hepes 10 mM, CaCl2 1 mM, MgCl2 0.5 mM, KCl 4.2 mM, NaCl 146 mM, glucose 5.5 mM and LiCl 50 mM, pH 7.4). Cells are stimulated for 1 h at 37° C., 5% CO2 by addition of the compounds that are diluted in stimulation buffer containing LiCl. Assays are stopped by adding HTRF-conjugates (IP1-d2 and Anti-IP1 cryptate Tb) and lysis buffer, provided by the manufacturer. After an incubation time of 1 h at room temperature plates are measured using an EnVision™, Perkin Elmer. The obtained fluorescence ratios at 665/615 […] are then used to calculate the pEC50 values using Assay Explorer 3.3 Software (Accelrys, Inc.) by interpolation using an IP1 reference curve and subsequent sigmoidal curve fitting allowing for a variable hill slope.

Aqueous solubility = assay type: physicochemical; details: buffer pH 2.2, 24 h shaking, 2.5% DMSO; for solubility at 24 h: aqueous buffer, kinetic from dmso stock
Method: Starting from a 10 mM DMSO stock solution aliquots are diluted with acetonitrile/water (1/1) or buffer, respectively. After 24 h of shaking, the solutions are filtrated and analyzed by LC-UV. The amount dissolved in buffer is compared to the amount in the acetonitrile solution.

[2] = target: cytochrome P450 2C9-isoenzyme (Homo sapiens (Human), UniProt P11712); test: Inhibition of CYP-2C9 (diclofenac hydroxylation, human liver microsomes); assay type: in vitro ADME; details: diclofenac 10 μM, 37° C.
cytochrome P450 2C9-isoenzyme, sequence (P11712 whole entry): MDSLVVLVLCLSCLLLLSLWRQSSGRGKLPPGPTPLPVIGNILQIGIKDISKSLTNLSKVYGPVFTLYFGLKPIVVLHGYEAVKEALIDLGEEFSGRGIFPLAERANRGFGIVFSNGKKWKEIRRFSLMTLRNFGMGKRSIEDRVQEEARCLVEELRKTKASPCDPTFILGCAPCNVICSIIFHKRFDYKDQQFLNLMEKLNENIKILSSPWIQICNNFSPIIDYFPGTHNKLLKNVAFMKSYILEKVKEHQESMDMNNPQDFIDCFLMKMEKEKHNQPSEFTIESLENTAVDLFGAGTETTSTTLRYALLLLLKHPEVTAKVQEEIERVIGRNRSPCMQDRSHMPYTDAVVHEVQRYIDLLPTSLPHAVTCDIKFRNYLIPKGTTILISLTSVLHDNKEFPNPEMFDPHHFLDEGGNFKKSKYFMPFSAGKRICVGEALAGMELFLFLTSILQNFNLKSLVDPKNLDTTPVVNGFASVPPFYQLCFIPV
Method: as §1, with “(0.1” for “(0.05”, “diclofenac (10” for “amodiaquine (1”, “(e.g.,” for “(e.g.”, “^13C6-hydroxydiclofenac—is” for “d5-desethylamodiaquine—is”, “(sulfaphenazole)” for “(Montelukast)”

[3] = 1321N1 cells stably expressing human GPR40, 1 h stimulation, read-out: EC50
[4] = head-to-head compilation, given as IC50, values equal the EC50 of Table 2, read-out: GPR40: IC50

cytochrome P450 2C8-isoenzyme, sequence (P10632 whole entry): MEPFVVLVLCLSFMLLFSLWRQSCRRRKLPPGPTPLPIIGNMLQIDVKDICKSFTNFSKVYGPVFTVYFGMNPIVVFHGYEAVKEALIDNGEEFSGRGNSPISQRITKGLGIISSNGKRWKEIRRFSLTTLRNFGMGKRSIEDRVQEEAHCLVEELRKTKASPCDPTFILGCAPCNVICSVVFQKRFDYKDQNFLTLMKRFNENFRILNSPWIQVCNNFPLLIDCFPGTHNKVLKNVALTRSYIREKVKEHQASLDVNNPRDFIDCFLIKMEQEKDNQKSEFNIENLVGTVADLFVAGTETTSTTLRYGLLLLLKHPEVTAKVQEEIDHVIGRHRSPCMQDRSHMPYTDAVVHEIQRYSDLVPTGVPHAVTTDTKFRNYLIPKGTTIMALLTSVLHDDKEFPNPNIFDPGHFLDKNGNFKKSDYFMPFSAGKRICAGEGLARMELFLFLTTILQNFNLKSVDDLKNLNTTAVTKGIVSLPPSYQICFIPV

Compound	IC50 [1] [µM]	EC50 (human GPR40 receptor; [3]) [µM]	Solubility at pH value 2.2 (Aqueous solubility) [μg/mL]	IC50 [2] [µM]	EC50 (human GPR40 receptor; [4]) [µM]	solubility at 24 h (Aqueous solubility) [µg/mL]
N#CC1(c2ccccc2-c2ccc(F)c3c2CC[C@H]3Nc2ccc([C@H]3C[C@@H]3C(=O)O)nc2)CC1 (mixture of isomers) [Example 25]	49	0.344	110	40		
Cc1cc(O[C@H]2CCOC2)cc(C)c1-c1ccc(F)c2c1CC[C@H]2Nc1ccc([C@H]2C[C@@H]2C(=O)O)nc1 (mixture of isomers) [Example 33]	40	0.012	103	> 50		
Cc1cc(OCCC(C)(C)O)cc(C)c1-c1ccc(F)c2c1CC[C@H]2Nc1ccc(C2C[C@@H]2C(=O)O)nc1 (stereo partly drawn) [Example 1, trans-2-(5-{(R)-7-Fluoro-4-[4-(3-hydroxy-3-methyl-butoxy)-2,6-dimethyl-phenyl]-indan-1-ylamino}-pyridin-2-yl)-cyclopropanecarboxylic acid]		0.011				
Cc1cc(OCCC(C)(C)O)cc(C)c1-c1ccc(F)c2c1CC[C@H]2Nc1ccc([C@H]2C[C@@H]2C(=O)O)nc1 [Example 2, (1S,2S)-2-(5-{(R)-7-Fluoro-4-[4-(3-hydroxy-3-methyl-butoxy)-2,6-dimethyl-phenyl]-indan-1-ylamino}-pyridin-2-yl)-cyclopropanecarboxylic acid]	20	0.004		> 50	0.004	100 (≈ 193 µM)
Cc1cc(OCCC(C)(C)O)cc(C)c1-c1ccc(F)c2c1CC[C@H]2Nc1ccc([C@@H]2C[C@H]2C(=O)O)nc1 [Example 3, (1R,2R)-2-(5-{(R)-7-Fluoro-4-[4-(3-hydroxy-3-methyl-butoxy)-2,6-dimethyl-phenyl]-indan-1-ylamino}-pyridin-2-yl)-cyclopropanecarboxylic acid]		0.107				
Cc1cc(OCCCS(C)(=O)=O)cc(C)c1-c1ccc(F)c2c1CC[C@H]2Nc1ccc([C@H]2C[C@@H]2C(=O)O)nc1 [Example 4, (1S,2S)-2-(5-{(R)-7-Fluoro-4-[4-(3-methanesulfonyl-propoxy)-2,6-dimethyl-phenyl]-indan-1-ylamino}-pyridin-2-yl)-cyclopropanecarboxylic acid]	> 50	0.007		> 50	0.007	97 (≈ 176 µM)
Cc1cc(-c2nnn(C)n2)cc(C)c1-c1cccc2c1CC[C@H]2Nc1ccc([C@H]2C[C@@H]2C(=O)O)nc1 [Example 6, (1S,2S)-2-(5-{(R)-4-[2,6-Dimethyl-4-(2-methyl-2H-tetrazol-5-yl)-phenyl]-indan-1-ylamino}-pyridin-2-yl)-cyclopropanecarboxylic acid]	29	0.003		> 50		68 (≈ 141 µM)
Cc1cc(OCCC(C)(C)O)cc(C)c1-c1cccc2c1CC[C@H]2Nc1ccc([C@H]2C[C@@H]2C(=O)O)nc1 [Example 7, (1S,2S)-2-(5-{(R)-4-[4-(3-Hydroxy-3-methyl-butoxy)-2,6-dimethyl-phenyl]-indan-1-ylamino}-pyridin-2-yl)-cyclopropanecarboxylic acid]	> 50	0.005		> 50		84 (≈ 168 µM)
COc1ccc(-c2cccc3c2CC[C@H]3Nc2ccc([C@H]3C[C@@H]3C(=O)O)nc2)cc1F [Example 8, (1S,2S)-2-{5-[(R)-4-(3-Fluoro-4-methoxy-phenyl)-indan-1-ylamino]-pyridin-2-yl}-cyclopropanecarboxylic acid]	> 50	0.1		> 50		62 (≈ 148 µM)
COc1cnc(-c2ccc(-c3cccc4c3CC[C@H]4Nc3ccc([C@H]4C[C@@H]4C(=O)O)nc3)cc2)cn1 [Example 9, (1S,2S)-2-(5-{(R)-4-[4-(5-Methoxy-pyrazin-2-yl)-phenyl]-indan-1-ylamino}-pyridin-2-yl)-cyclopropanecarboxylic acid]	20	0.024		> 50		< 1
Cc1nnc(-c2ccc(-c3cccc4c3CC[C@H]4Nc3ccc([C@H]4C[C@@H]4C(=O)O)nc3)cc2)o1 [Example 10, (1S,2S)-2-(5-{(R)-4-[4-(5-Methyl-[1,3,4]oxadiazol-2-yl)-phenyl]-indan-1-ylamino}-pyridin-2-yl)-cyclopropanecarboxylic acid]		0.146				
Cc1cc(OCCCS(C)(=O)=O)cc(C)c1-c1ccc(F)c2c1CC[C@H]2Oc1ccc([C@H]2C[C@@H]2C(=O)O)nc1 [Example 11 in WO 2013/178575, reference compound]	12			17	0.008	
Cc1cc(C(N)=O)cc(C)c1-c1ccc(F)c2c1CC[C@H]2Nc1ccc([C@H]2C[C@@H]2C(=O)O)nc1 [Example 11]	> 50	0.03	>120	> 50		
Cc1cc(O[C@@H]2CCOC2)cc(C)c1-c1ccc(F)c2c1CC[C@H]2Nc1ccc([C@H]2C[C@@H]2C(=O)O)nc1 [Example 12]	30	0.01	105	> 50		
Cc1cc(CO)cc(C)c1-c1ccc(F)c2c1CC[C@H]2Nc1ccc([C@H]2C[C@@H]2C(=O)O)nc1 [Example 13]	40	0.025	105	> 50		
Cc1cc(C(=O)NCC(C)(C)O)cc(C)c1-c1ccc(F)c2c1CC[C@H]2Oc1ccc([C@H]2C[C@@H]2C(=O)O)cc1 [Example 15 in WO 2013/178575, reference compound]	10			31		< 1
Cc1cc(OCC2(C)COC2)cc(C)c1-c1ccc(F)c2c1CC[C@H]2Nc1ccc([C@H]2C[C@@H]2C(=O)O)nc1 [Example 15]	32	0.008	120	> 50		
Cc1cc(OCC(=O)O)cc(C)c1-c1ccc(F)c2c1CC[C@H]2Nc1ccc([C@H]2C[C@@H]2C(=O)O)nc1 [Example 16]	> 50	0.924	96	> 50		
Cc1cc(OCC(C)(C)C#N)cc(C)c1-c1ccc(F)c2c1CC[C@H]2Nc1ccc([C@H]2C[C@@H]2C(=O)O)nc1 [Example 17]	19	0.01	64	36		
Cc1cc(-c2ccn(C)c(=O)n2)cc(C)c1-c1ccc(F)c2c1CC[C@H]2Nc1ccc([C@H]2C[C@@H]2C(=O)O)nc1 [Example 18]	21	0.005	>130	> 50		
Cc1cc(-c2ccnn2C)cc(C)c1-c1ccc(F)c2c1CC[C@H]2Nc1ccc([C@H]2C[C@@H]2C(=O)O)nc1 [Example 19]	7	0.012	95	26		
Cc1cc(-c2nnn(C)n2)cc(C)c1-c1ccc(F)c2c1CC[C@H]2Nc1ccc([C@H]2C[C@@H]2C(=O)O)nc1 [Example 30]	20	0.003		> 50		
Cc1cccc(C)c1-c1ccc(F)c2c1CC[C@H]2Oc1ccc(C2CC2C(=O)O)cc1 (some centres unmarked) [Example 33 in WO 2013/178575, reference compound]	5			7		
Cc1c(C#N)cccc1-c1ccc(F)c2c1CC[C@H]2Oc1ccc([C@H]2C[C@@H]2C(=O)O)cc1 [Example 54 in WO 2013/178575, reference compound]	9			10		< 1

Reference: US10125101B2, “Indanylaminopyridylcyclopropanecarboxylic acids, pharmaceutical compositions and uses thereof” (Boehringer Ingelheim International GmbH, priority 2016, dated 2018)
